From article doi:10.1101/2020.09.06.284752v1 (biorxiv, 2020) come the findings set out here.

Assay [1] deals with T1, recombinant human PFKM (Homo sapiens, UniProt P08237).
T1 sequence (P08237 2-780): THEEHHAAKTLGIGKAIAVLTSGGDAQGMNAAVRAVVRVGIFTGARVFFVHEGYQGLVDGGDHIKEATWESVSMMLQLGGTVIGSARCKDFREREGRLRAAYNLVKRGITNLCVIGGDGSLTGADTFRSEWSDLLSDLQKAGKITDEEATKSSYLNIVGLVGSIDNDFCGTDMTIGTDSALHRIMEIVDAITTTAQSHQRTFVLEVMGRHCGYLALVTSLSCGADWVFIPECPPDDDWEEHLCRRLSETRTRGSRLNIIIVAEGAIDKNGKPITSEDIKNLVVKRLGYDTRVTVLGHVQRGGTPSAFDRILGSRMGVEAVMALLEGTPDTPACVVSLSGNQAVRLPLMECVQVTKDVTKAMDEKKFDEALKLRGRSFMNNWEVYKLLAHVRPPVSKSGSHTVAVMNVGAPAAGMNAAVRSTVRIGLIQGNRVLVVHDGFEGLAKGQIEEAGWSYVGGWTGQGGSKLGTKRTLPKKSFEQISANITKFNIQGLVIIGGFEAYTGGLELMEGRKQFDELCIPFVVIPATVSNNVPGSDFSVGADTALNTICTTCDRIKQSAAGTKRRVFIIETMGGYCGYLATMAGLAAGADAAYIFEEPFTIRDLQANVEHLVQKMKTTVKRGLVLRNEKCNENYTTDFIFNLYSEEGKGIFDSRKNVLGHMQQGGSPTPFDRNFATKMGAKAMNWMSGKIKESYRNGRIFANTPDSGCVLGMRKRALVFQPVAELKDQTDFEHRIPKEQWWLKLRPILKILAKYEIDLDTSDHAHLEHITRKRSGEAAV
Briefly: PFKM enzymatic activity inhibition. It is filed as biochemical.

Assay [2] deals with T2, recombinant PFKL (Homo sapiens, UniProt P17858).
T2 sequence (P17858 2-780): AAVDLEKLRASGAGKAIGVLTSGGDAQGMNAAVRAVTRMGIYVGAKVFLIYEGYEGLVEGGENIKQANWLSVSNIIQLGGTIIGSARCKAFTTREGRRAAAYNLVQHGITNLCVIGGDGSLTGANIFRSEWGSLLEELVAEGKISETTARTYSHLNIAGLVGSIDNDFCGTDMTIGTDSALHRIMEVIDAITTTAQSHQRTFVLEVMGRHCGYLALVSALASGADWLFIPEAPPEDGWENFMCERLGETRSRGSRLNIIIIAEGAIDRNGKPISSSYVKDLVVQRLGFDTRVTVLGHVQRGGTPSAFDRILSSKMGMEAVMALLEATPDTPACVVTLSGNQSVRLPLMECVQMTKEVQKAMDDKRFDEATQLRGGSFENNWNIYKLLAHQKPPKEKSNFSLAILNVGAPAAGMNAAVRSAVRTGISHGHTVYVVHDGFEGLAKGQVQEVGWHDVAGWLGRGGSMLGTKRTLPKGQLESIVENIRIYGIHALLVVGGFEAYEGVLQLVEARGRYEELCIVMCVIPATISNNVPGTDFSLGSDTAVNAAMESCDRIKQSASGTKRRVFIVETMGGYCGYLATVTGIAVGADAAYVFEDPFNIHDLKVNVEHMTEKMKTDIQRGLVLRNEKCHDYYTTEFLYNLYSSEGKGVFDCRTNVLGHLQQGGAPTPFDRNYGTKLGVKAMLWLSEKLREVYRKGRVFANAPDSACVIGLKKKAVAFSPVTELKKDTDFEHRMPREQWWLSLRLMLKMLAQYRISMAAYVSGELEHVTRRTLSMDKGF
As to the kind of experiment: PFKL enzymatic activity inhibition. It is filed as biochemical.

A word on the IC50: it is the point on the concentration scale where inhibition reaches its midpoint.

Turning to `C#CCNC(=O)[C@]1(C)CC[C@]2(C)CC[C@]3(C)C4=CC=C5C(=CC(=O)C(O)=C5C)[C@]4(C)CC[C@@]3(C)[C@@H]2C1` [1-85], in assay [1], the IC50 is 507 nM.

On to `O=C(c1cccs1)c1no[n+]([O-])c1C(=O)c1cccs1` [3-79], for which the IC50 in assay [1] stood at 292 ± 20.8 nM. For `CC1=C(O)C(=O)C=C2C1=CC=C1[C@@]2(C)CC[C@@]2(C)[C@@H]3C[C@](C)(C(=O)O)CC[C@]3(C)CC[C@]12C` [celastrol], the IC50 worked out at 916 ± 35.7 nM in assay [2] and 349 nM in assay [1].
